Converted amounts (≈) assume the structure as drawn.
Assays:
[1] = target: Protein kinase C alpha type (Homo sapiens, UniProt P17252); assay: Displacement of [20-3H]phorbol 12,13-dibutyrate from recombinant PKCalpha
[2] = Antitumor activity against human Hs 578T cells; assay type: functional
[3] = test system: COLO 205; assay: Antitumor activity against human COLO205 cells; assay type: functional
[4] = test system: SK-MEL-5; assay: Antitumor activity against human SK-MEL-5 cells; assay type: functional
[5] = Antitumor activity against human NCI-H322 cells; assay type: functional
[6] = test system: K562; assay: Antitumor activity against human K562 cells; assay type: functional
[7] = test system: MOLT-4F; assay: Antitumor activity against human MOLT4F cells; assay type: functional
[8] = test system: CCRF-CEM; assay: Antitumor activity against human CCRF-CEM cells; assay type: functional
[9] = test system: HL-60; assay: Antitumor activity against human HL60 cells; assay type: functional

Row | Compound | Ki [1] [nM] | GI50 [2] [µg/mL] | GI50 [3] [µg/mL] | GI50 [4] [µg/mL] | GI50 [5] [µg/mL] | GI50 [6] [µg/mL] | GI50 [7] [µg/mL] | GI50 [8] [µg/mL] | GI50 [9] [µg/mL]
1 | CC(C)(C)C(=O)OCC1(CO)C/C(=C\CCCCCCCCCCCCCCCOC=O)C(=O)O1 (stereo not given) | 8 | – | – | – | – | – | – | – | –
2 | CC(C)(C)C(=O)OCC1(CO)C/C(=C\CCCCCCCOC2CCCC2)C(=O)O1 (stereo not given) | 10.2 | – | – | – | – | – | – | – | –
3 | COc1cccc2c1C(=O)c1c(O)c3c(c(O)c1C2=O)C[C@@](O)(C(=O)CO)C[C@@H]3O[C@H]1C[C@H](N)[C@H](O)[C@H](C)O1.Cl [DOXORUBICIN HYDROCHLORIDE] | – | 0.596 | 0.523 | 0.481 | 0.615 | 0.375 | 0.277 | 0.181 | 0.413
4 | COCCCCCCCCCCCCCCC/C=C1/CC(CO)(COC(=O)C(C)(C)C)OC1=O (stereo not given) | 5 | 6.77 (≈ 14 µM) | 0.178 (≈ 0.369 µM) | 2.13 (≈ 4.42 µM) | > 10 | 0.138 (≈ 0.286 µM) | 1.64 (≈ 3.4 µM) | < 0.1 | 3.97 (≈ 8.22 µM)
5 | CC(C)(C)C(=O)OCC1(CO)C/C(=C\CCCCCCCO)C(=O)O1 (stereo not given) | 378 | – | – | – | – | – | – | – | –
6 | CC(C)(C)C(=O)OCC1(CO)C/C(=C\CCCCCCCCCCC=O)C(=O)O1 (stereo not given) | 30.3 | – | – | – | – | – | – | – | –
7 | CC(C)CCOCCCCCCC/C=C1\CC(CO)(COC(=O)C(C)(C)C)OC1=O (stereo not given) | 7.74 | – | – | – | – | – | – | – | –
8 | COCOCCCCCCC/C=C1\CC(CO)(COC(=O)C(C)(C)C)OC1=O (stereo not given) | 198 | > 10 | 2.01 (≈ 5.01 µM) | 8.33 (≈ 20.8 µM) | > 10 | 3.69 (≈ 9.22 µM) | 1.84 (≈ 4.6 µM) | > 10 | > 10
9 | CC(C)(C)C(=O)OCC1(CO)C/C(=C\CCCCCCCCCCCO)C(=O)O1 (stereo not given) | 14.5 | > 10 | 2.49 (≈ 6.03 µM) | 5.81 (≈ 14.1 µM) | > 10 | 1.09 (≈ 2.64 µM) | 1.34 (≈ 3.26 µM) | 0.65 (≈ 1.58 µM) | > 10
10 | CC(C)(C)C(=O)OCC1(CO)C/C(=C/CCCCCCCCCCCCCCC=O)C(=O)O1 (stereo not given) | 11.4 | > 10 | 5.14 (≈ 11 µM) | > 10 | > 10 | 2.58 (≈ 5.53 µM) | 2.02 (≈ 4.33 µM) | > 10 | > 10
11 | CC(C)(C)C(=O)OCC1(CO)C/C(=C\CCCCCCCCCCCCCCCN)C(=O)O1 (stereo not given) | 36.4 | > 10 | 1.53 (≈ 3.28 µM) | 5.1 (≈ 10.9 µM) | 8.43 (≈ 18 µM) | 1.52 (≈ 3.25 µM) | 3.17 (≈ 6.77 µM) | 2.82 (≈ 6.03 µM) | > 10
12 | COCCCCCCCCCCC/C=C1\CC(CO)(COC(=O)C(C)(C)C)OC1=O (stereo not given) | 8.2 | 7.34 (≈ 17.2 µM) | 0.541 (≈ 1.27 µM) | 2.81 (≈ 6.58 µM) | > 10 | 0.516 (≈ 1.21 µM) | 2.38 (≈ 5.59 µM) | 0.701 (≈ 1.64 µM) | 5.22 (≈ 12.2 µM)
13 | CCCCCCCCC(O)CCCCCC/C=C1\CC(CO)(COC(=O)C(C)(C)C)OC1=O (stereo not given) | 118 | > 10 | 8.91 (≈ 19 µM) | > 10 | > 10 | 7.3 (≈ 15.6 µM) | 7.91 (≈ 16.9 µM) | 5.71 (≈ 12.2 µM) | > 10
14 | COC(=O)CCCCCC/C=C1\CC(CO)(COC(=O)C(C)(C)C)OC1=O (stereo not given) | 533 | – | – | – | – | – | – | – | –
15 | CCCCCCCCCCCCC/C=C1/CC(CO)(COC(=O)C(C)(C)C)OC1=O (stereo not given) | 7.15 | – | – | – | – | – | – | – | –
16 | COC(=O)CCCCCCCCCCCCCC/C=C1\CC(CO)(COC(=O)C(C)(C)C)OC1=O (stereo not given) | 6.83 | > 10 | 3.86 (≈ 7.77 µM) | 7.8 (≈ 15.7 µM) | > 10 | 0.856 (≈ 1.72 µM) | > 10 | 0.691 (≈ 1.39 µM) | > 10

Row | Compound | Ki [1] [nM] | GI50 [2] [µg/mL] | GI50 [3] [µg/mL] | GI50 [4] [µg/mL] | GI50 [5] [µg/mL] | GI50 [6] [µg/mL] | GI50 [7] [µg/mL] | GI50 [8] [µg/mL] | GI50 [9] [µg/mL]
17 | CC(=O)OCCCCCCCCCCCCCCC/C=C1\CC(CO)(COC(=O)C(C)(C)C)OC1=O (stereo not given) | 9.3 | > 10 | 2.1 (≈ 4.11 µM) | 5.62 (≈ 11 µM) | > 10 | 0.959 (≈ 1.88 µM) | 1.55 (≈ 3.03 µM) | 7.55 (≈ 14.8 µM) | > 10
18 | CC(=O)NCCCCCCCCCCCCCCC/C=C1\CC(CO)(COC(=O)C(C)(C)C)OC1=O (stereo not given) | 8.25 | > 10 | 4.74 (≈ 9.29 µM) | > 10 | > 10 | 3.38 (≈ 6.64 µM) | 6.35 (≈ 12.5 µM) | 1.08 (≈ 2.11 µM) | > 10
19 | CCCCCCCCCOCCCCCCC/C=C1\CC(CO)(COC(=O)C(C)(C)C)OC1=O (stereo not given) | 3.2 | 4.64 (≈ 9.61 µM) | 0.264 (≈ 0.547 µM) | 1.43 (≈ 2.96 µM) | > 10 | 0.156 (≈ 0.323 µM) | 2.14 (≈ 4.43 µM) | 0.304 (≈ 0.63 µM) | 4.53 (≈ 9.37 µM)
20 | COCCOCOCCCCCCC/C=C1\CC(CO)(COC(=O)C(C)(C)C)OC1=O (stereo not given) | 323 | – | – | – | – | – | – | – | –
21 | CC(C)(C)C(=O)OCC1(CO)C/C(=C/CCCCCCCCCCCCCCCO)C(=O)O1 (stereo not given) | 8.24 | > 10 | 2.34 (≈ 4.99 µM) | 5.34 (≈ 11.4 µM) | > 10 | 0.872 (≈ 1.86 µM) | 1.37 (≈ 2.93 µM) | 6.63 (≈ 14.1 µM) | 6.39 (≈ 13.6 µM)
22 | CC(C)(C)C(=O)OCCCCCCCCCCCCCCC/C=C1\CC(CO)(COC(=O)C(C)(C)C)OC1=O (stereo not given) | 10.5 | 5.24 (≈ 9.48 µM) | 0.597 (≈ 1.08 µM) | 3.46 (≈ 6.25 µM) | > 10 | 0.352 (≈ 0.637 µM) | 0.605 (≈ 1.09 µM) | > 10 | 7.78 (≈ 14.1 µM)
23 | CC(C)(C)C(=O)OCC1(CO)C/C(=C\CCCCCCCCCCCCCCC=O)C(=O)O1 (stereo not given) | 6.38 | > 10 | > 10 | > 10 | > 10 | 5.11 (≈ 10.9 µM) | > 10 | 0.933 (≈ 2 µM) | > 10
24 | COCCCCCCCCCCCCCCC/C=C1\CC(CO)(COC(=O)C(C)(C)C)OC1=O (stereo not given) | 4.4 | 5.45 (≈ 11.3 µM) | 0.118 (≈ 0.244 µM) | 1.75 (≈ 3.63 µM) | > 10 | 0.189 (≈ 0.392 µM) | 0.498 (≈ 1.03 µM) | 4.26 (≈ 8.83 µM) | 4.65 (≈ 9.64 µM)
25 | CCCCCCCCCCCCC/C=C1\CC(CO)(COC(=O)C(C)(C)C)OC1=O (stereo not given) | 7.83 | 2.27 (≈ 5.34 µM) | 0.253 (≈ 0.596 µM) | 0.779 (≈ 1.83 µM) | > 10 | < 0.1 | 0.227 (≈ 0.535 µM) | 0.14 (≈ 0.33 µM) | 2.4 (≈ 5.65 µM)
26 | CCCCCOCCCCCCC/C=C1\CC(CO)(COC(=O)C(C)(C)C)OC1=O (stereo not given) | 8.1 | 3 (≈ 7.04 µM) | 0.491 (≈ 1.15 µM) | 2.99 (≈ 7.02 µM) | 9.52 (≈ 22.3 µM) | 1.15 (≈ 2.69 µM) | 1.03 (≈ 2.41 µM) | 0.877 (≈ 2.06 µM) | 2.96 (≈ 6.94 µM)
27 | COCCCCCCC/C=C1\CC(CO)(COC(=O)C(C)(C)C)OC1=O (stereo not given) | 191 | – | – | – | – | – | – | – | –
28 | CCCCCCCCCOCCC/C=C1\CC(CO)(COC(=O)C(C)(C)C)OC1=O (stereo not given) | 7.44 | – | – | – | – | – | – | – | –
29 | CC(C)(C)C(=O)OCC1(CO)C/C(=C\CCCCCCCCCCCCCCCN=[N+]=[N-])C(=O)O1 (stereo not given) | 15.6 | – | – | – | – | – | – | – | –
30 | CC(C)(C)C(=O)OCC1(CO)C/C(=C\CCCCCCCCCCCCCCC(=O)O)C(=O)O1 (stereo not given) | 29.7 | – | – | – | – | – | – | – | –
31 | CC(C)(C)C(=O)OCC1(CO)C/C(=C\CCCCCCC=O)C(=O)O1 (stereo not given) | 39.3 | – | – | – | – | – | – | – | –
32 | CC(C)(C)C(=O)OCC1(CO)C/C(=C\CCCCCCCCCCCCCCCO)C(=O)O1 (stereo not given) | 6.4 | – | – | – | – | – | – | – | –

Source: ChEMBL document CHEMBL1159092, “Polar 3-alkylidene-5-pivaloyloxymethyl-5'-hydroxymethyl-gamma-lactones as protein kinase C ligands and antitumor agents” (Bioorg Med Chem Lett, 2010)
